Biological target: T1, Fructose-1,6-bisphosphatase 1 (Sus scrofa, UniProt P00636)
T1 sequence (P00636 whole entry): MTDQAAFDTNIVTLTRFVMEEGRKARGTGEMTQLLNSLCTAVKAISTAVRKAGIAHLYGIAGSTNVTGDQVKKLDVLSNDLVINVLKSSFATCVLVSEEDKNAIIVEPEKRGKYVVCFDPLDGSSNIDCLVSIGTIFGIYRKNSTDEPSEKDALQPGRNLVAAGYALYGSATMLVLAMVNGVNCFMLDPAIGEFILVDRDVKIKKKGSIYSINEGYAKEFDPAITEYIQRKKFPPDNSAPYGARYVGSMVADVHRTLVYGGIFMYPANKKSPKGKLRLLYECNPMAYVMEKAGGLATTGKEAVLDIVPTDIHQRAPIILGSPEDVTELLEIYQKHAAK
Assay: Inhibitory activity against Fructose-1,6-bisphosphatase (F16BPase) in porcine kidney
Type: tissue-based

| IC50 [nM] | SMILES |
| --- | --- |
| 1000 | O=C(O)CCc1c(C(=O)O)[nH]c2cc(Cl)cc(Cl)c12 |

Biological target: not listed separately
Assay: Inhibitory activity against Fructose-1,6-bisphosphatase (F16BPase) in rat liver
Type: tissue-based

| IC50 [nM] | SMILES |
| --- | --- |
| 11000 | O=C(O)CCc1c(C(=O)O)[nH]c2cc(Cl)cc(Cl)c12 |

Biological target: not listed separately
Assay: Inhibitory activity against Fructose-1,6-bisphosphatase (F16BPase) in rabbit liver
Type: tissue-based, Oryctolagus cuniculus

| IC50 [nM] | SMILES |
| --- | --- |
| 210 | O=C(O)CCc1c(C(=O)O)[nH]c2cc(Cl)cc(Cl)c12 |

Biological target: not listed separately
Assay: Inhibitory activity against Fructose-1,6-bisphosphatase (F16BPase) in human liver
Type: tissue-based

| SMILES | IC50 [nM] |
| --- | --- |
| O=C(O)CCCc1c(C(=O)O)[nH]c2cc(Cl)cc(Cl)c12 | 1000 |
| O=C(O)CCc1c(C(=O)NO)[nH]c2cc(Cl)cc(Cl)c12 | > 10000 |
| O=C(O)Cc1c(C(=O)O)[nH]c2cc(Cl)cc(Cl)c12 | 2500 |
| COC(=O)CCc1c(C(=O)O)[nH]c2cc(Cl)cc(Cl)c12 | 7000 |
| CN(C)C(=O)CCc1c(C(=O)O)[nH]c2cc(Cl)cc(Cl)c12 | 1700 |
| Cn1c(C(=O)O)c(CCC(=O)O)c2c(Cl)cc(Cl)cc21 | > 10000 |
| NC(=O)CCc1c(C(=O)O)[nH]c2cc(Cl)cc(Cl)c12 | 2200 |
| O=C(CCc1c(C(=O)O)[nH]c2cc(Cl)cc(Cl)c12)NO | 1500 |
| O=C(O)CCc1c(CO)[nH]c2cc(Cl)cc(Cl)c12 | > 10000 |
| NC(=O)c1[nH]c2cc(Cl)cc(Cl)c2c1CCC(=O)O | > 10000 |

The remaining lines, values ahead:

| IC50 [nM] | SMILES |
| --- | --- |
| > 10000 | CN(C)C(=O)c1[nH]c2cc(Cl)cc(Cl)c2c1CCC(=O)O |
| 2700 | O=C(O)c1[nH]c2cc(Cl)cc(Cl)c2c1CCCO |
| > 10000 | CCOC(=O)c1[nH]c2cc(Cl)cc(Cl)c2c1CCC(=O)O |
| 1200 | O=C(O)CCCCc1c(C(=O)O)[nH]c2cc(Cl)cc(Cl)c12 |

— ChEMBL document CHEMBL1136544, “3-(2-carboxyethyl)-4,6-dichloro-1H-indole-2-carboxylic acid: an allosteric inhibitor of fructose-1,6-bisphosphatase at the AMP site” (Bioorg Med Chem Lett, 2003)
